In patent US5788964A, “Method for sensitization of cancer cells for killer cell mediated lysis” (Orion-Yhtyma Oy, priority 1996, dated 1998):

Tests used:
P815 tumor = P815 tumor growth, drug in drinking water with or without LAK (Example 3); type: in vivo, mice; settings: drinking water TX 100 μg/ml, TO 400 μg/ml; LAK 1:25 then weekly for 3 weeks
P815 mastocytoma = assay: Immunotherapy of P815 mastocytoma, drug by gavage and LAK cells (Example 6); type: in vivo, DBA/2 mice; settings: 10 mg/kg/day by gavage, with or without LAK as labelled
Method: DBA/2 female mice were injected s. c. with 10^4 P815 tumor cells. […] Two days later 25×10^4 LAK cells were given i.p., LAK was injected three times more, four days apart. Drug treatment was maintained from day 14 until day 30.

P815 tumor cells = assay: Winn assay, pretreated P815 cells mixed with LAK cells 1:25 (Example 2); type: in vivo, DBA/2 mice; settings: target:effector 1:25, s.c., groups of 4
Method: (§1) For the generation of LAK cells, 2×10^6 /ml of spleen cells from female DBA/N2 mice were cultured for 5 days in RPMI-1640 medium supplemented with 10%FCS, 5×10^-5 M 2-mercaptoethanol and 500 U/mI of human recombinant interleukin-2 at 370C in humidified air containing 5% CO2.

P815 cells = assay: 51Cr assay, killing of P815 cells by LAK cells from DBA/N2 mice (Example 2); settings: Mus musculus, P815, 4 h, read-out: P815 cells killed by LAK cells
Method: as §1

[1] = test system: P815 (NK resistant murine mastocytoma); assay: LAK cell mediated cytotoxicity (51Cr release), rat LAK; settings: for target cell lysis, effector cells pretreated (in words): LAK effectors pretreated; for lysis of treated targets by treated effectors (in words) / target cell lysis, target cells treated (in words): LAK effectors; for lysis of treated targets by treated effectors (in words): both treated; for target cell lysis, target cells treated (in words): target cells treated for 4 h prior to the cytotoxic reaction
Method: Rat spleen cells were used as effector cells either without activation (NK cells), or after treatment with human IL-2 (LAK), or after stimulation with the Nb2 rat lymphoma in mixed cultures (CTL). The Yac-1 murine lymphoma was used as a target for NK cells, the P815 mastocytoma for LAK cells and Nb2 cells for CTL. […] Target cells were labeled with ^51 Cr for 1 hr, then washed. The specific ^51 Cr release was determined after 4 hours of incubation at 37° C., 5% CO2 (target/effector 1:25).
Target cells: P815 (NKresistant murine mastocytoma)
Effectar cells: Spleen cells of Fischer rats were cultured in medium
supplemented with 500 U/ml riL2 for 6 days at 37° C. and 5%

Yac1 murine lymphoma = assay: NK cell mediated cytotoxicity (51Cr release); settings: for target cell lysis, effector cells pretreated (in words): NK effectors pretreated; for lysis of treated targets by treated effectors (in words) / target cell lysis, target cells treated (in words): NK effectors; for lysis of treated targets by treated effectors (in words): both treated; for target cell lysis, target cells treated (in words): target cells treated for 4 h prior to the cytotoxic reaction
Method: (§2) Target cells were labeled with ^51 Cr for 1 hr, then washed. The specific ^51 Cr release was determined after 4 hours of incubation at 37° C., 5% CO2 (target/effector 1:25).
Target cells: Yac1 murine lymphoma
Effector cells: Spleen lymphocytes of female Fishner rats

Nb2 rat lymphoma = assay: Target cell destruction by cytolytic lymphocytes (CTL) generated in mixed cultures (51Cr release); settings: for target cell lysis, effector cells pretreated (in words): CTL effectors pretreated; for lysis of treated targets by treated effectors (in words) / target cell lysis, target cells treated (in words): CTL effectors; for lysis of treated targets by treated effectors (in words): both treated; for target cell lysis, target cells treated (in words): target cells treated for 4 h prior to the cytotoxic reaction
Method: as §2
Target cells: Nb2 rat lymphoma
Effector cells: Cytotoxic Tlymphocytes (CTL) generated in mixed cultures,
Responder: Spleen cells of Fischer rats. Stimulator: Nb2 cells (thymic

tumor estrogen receptors = settings: background statement; cited from earlier work

Row | Structure (SMILES) | tumor free animals (P815 tumor) | partial regression (P815 mastocytoma) | animals protected / survival (P815 tumor cells) | cytotoxicity at 5 µM (P815 cells) [%] | target cell lysis, effector cells pretreated (in words) [1] | lysis of treated targets by treated effectors (in words) [1] | target cell lysis, target cells treated (in words) [1] | target cell lysis, effector cells pretreated (in words) (Yac1 murine lymphoma) | lysis of treated targets by treated effectors (in words) (Yac1 murine lymphoma) | target cell lysis, target cells treated (in words) (Yac1 murine lymphoma) | target cell lysis, effector cells pretreated (in words) (Nb2 rat lymphoma) | lysis of treated targets by treated effectors (in words) (Nb2 rat lymphoma) | target cell lysis, target cells treated (in words) (Nb2 rat lymphoma) | cytotoxicity at 1 µM (P815 cells) [%] | inhibition of estrogen-induced growth (tumor estrogen receptors)
1 | CN(C)CCOc1ccc(/C(=C(/CCCl)c2ccccc2)c2ccccc2)cc1 [TO, toremifene] | one | one | 1 of 4 | 51 | no such enhancing effect | lysed treated targets as efficiently as did nontreated effectors | enhanced target cell lysis in a dose dependent fashion | no such enhancing effect | lysed treated targets as efficiently as did nontreated effectors | enhanced target cell lysis in a dose dependent fashion | no such enhancing effect | lysed treated targets as efficiently as did nontreated effectors | enhanced target cell lysis in a dose dependent fashion |  | 
2 | CC/C(=C(\c1ccccc1)c1ccc(OCCN(C)C)cc1)c1ccccc1 [TX, tamoxifen] |  | one | killed all the animals |  | no such enhancing effect | lysed treated targets as efficiently as did nontreated effectors | enhanced target cell lysis in a dose dependent fashion | no such enhancing effect | lysed treated targets as efficiently as did nontreated effectors | enhanced target cell lysis in a dose dependent fashion | no such enhancing effect | lysed treated targets as efficiently as did nontreated effectors | enhanced target cell lysis in a dose dependent fashion | 52 | inhibit estrogen-induced growth by competitive antagonism of tumor estrogen receptors
